Experiments:
HUVEC = tested on: HUVEC
Description: (§1) Human Umbilical Vein Endothelial Cells (HUVEC), complete endothelial growth medium-2 (EGM-2) and bullet kit were purchased from Lonza (Walkersville, Md.). Cells were grown and maintained in a humidified 37° C. and 5% CO2 atmosphere. Cells were expanded on T75 cm^2 polystyrene flasks to passage 5 and plated onto 6-well plates for experimental assays (Fischer Scientific, Pittsburgh, Pa.). MCEC, a normal mouse cardiac endothelial cell line from Cedarlane (Ontario, Canada), were cultured in Dulbecco's Modified Eagle Medium (DMEM) (Life Technologies, CA) supplemented with 10% fetal bovine serum (FBS) in a 37° C. incubator with humidified room air and 5% CO2.
(§2) M-Per lysis of Ecs was used as an assay control.

MCEC = tested on: MCEC
Description: as §1, §2

aortic allograft = assay: Aortic allograft model of chronic allograft rejection (Balb/c to C57Bl/6); type: in vivo, mouse; settings: 100 or 1000 ng/ml tested; quantified intimal thickening
Description: Male Balb/c (H-2^d) and C57BL/6 (B6;H-2^b) mice (8-10 weeks) were obtained from Jackson laboratory (Bar Harbor, Me.). All mice weighed 25-30 g and were housed under specific pathogen-free conditions at the Medical University of South Carolina (Charleston, S.C.) and were used for transplantation studies. In the following series, transplants to male B6 mice were performed under clean conditions using Balb/c donors in the allograft group (Balb/c to B6, n=20) and B6 donors in the isograft group (B6 to B6, n=10). The mice were anesthetized with intraperitoneal injections of ketamine (75 mg/kg, Lloyd Laboratories, Shenandoah, Iowa, USA) and xylazine (16 mg/kg, Vedco, Inc., St. Joseph, Mo., USA) diluted in sterile normal saline. An operating microscope with 16×magnification was used for the surgical procedure. The cuff used for the anastamosis consisted of a 0.6 mm body and a 0.6 mm extension crafted from a 24 gauge polyimide catheter (inner diameter 0.5 mm, wall thickness 0.025 mm, cat. No. 141-0027, Vention Medical, NH, USA).
After satisfactory anesthetic was administered, the donor mouse was placed in supine position and a midline thoraco-abdominal incision was made. […] For orthotopic transplantation, the bowel was reflected cephalad, the colon was retracted to the animal's left side, and the seminal vesicles and testes were distracted caudally. […]

[1] = target: integrin αVβ3 on human umbilical vein endothelial cells (HUVEC) (human) (UniProt P06756); assay: cell-based or functional assay
Chain of integrin αVβ3 on human umbilical vein endothelial cells (HUVEC) (human) (P06756 31-1048, chain 1 of 2): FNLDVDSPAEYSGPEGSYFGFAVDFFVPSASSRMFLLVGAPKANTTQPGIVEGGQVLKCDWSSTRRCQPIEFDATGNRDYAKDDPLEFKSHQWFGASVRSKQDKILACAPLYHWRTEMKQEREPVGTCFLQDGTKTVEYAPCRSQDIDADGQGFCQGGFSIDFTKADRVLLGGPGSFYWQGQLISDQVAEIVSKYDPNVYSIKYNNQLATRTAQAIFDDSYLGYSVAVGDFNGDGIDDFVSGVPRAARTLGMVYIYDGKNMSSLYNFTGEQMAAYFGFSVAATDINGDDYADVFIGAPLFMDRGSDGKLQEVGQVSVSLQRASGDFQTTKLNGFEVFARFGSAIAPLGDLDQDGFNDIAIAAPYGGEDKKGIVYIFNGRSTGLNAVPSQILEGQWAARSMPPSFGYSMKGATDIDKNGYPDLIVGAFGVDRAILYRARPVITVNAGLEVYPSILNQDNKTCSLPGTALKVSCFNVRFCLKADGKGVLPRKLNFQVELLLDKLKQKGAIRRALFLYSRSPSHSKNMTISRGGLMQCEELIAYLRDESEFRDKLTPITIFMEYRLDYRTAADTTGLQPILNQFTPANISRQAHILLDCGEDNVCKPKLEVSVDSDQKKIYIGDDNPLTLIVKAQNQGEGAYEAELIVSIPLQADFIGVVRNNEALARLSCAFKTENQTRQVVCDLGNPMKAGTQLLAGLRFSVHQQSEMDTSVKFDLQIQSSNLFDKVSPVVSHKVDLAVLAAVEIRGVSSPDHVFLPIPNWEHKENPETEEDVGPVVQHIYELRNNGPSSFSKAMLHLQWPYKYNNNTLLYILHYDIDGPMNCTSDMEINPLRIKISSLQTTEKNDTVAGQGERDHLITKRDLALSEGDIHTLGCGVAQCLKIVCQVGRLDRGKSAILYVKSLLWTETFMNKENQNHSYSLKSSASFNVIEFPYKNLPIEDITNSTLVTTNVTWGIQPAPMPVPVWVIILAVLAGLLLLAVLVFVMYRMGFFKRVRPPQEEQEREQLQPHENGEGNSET
Chain of integrin αVβ3 on human umbilical vein endothelial cells (HUVEC) (human) (P05106 27-788, chain 2 of 2, further chain): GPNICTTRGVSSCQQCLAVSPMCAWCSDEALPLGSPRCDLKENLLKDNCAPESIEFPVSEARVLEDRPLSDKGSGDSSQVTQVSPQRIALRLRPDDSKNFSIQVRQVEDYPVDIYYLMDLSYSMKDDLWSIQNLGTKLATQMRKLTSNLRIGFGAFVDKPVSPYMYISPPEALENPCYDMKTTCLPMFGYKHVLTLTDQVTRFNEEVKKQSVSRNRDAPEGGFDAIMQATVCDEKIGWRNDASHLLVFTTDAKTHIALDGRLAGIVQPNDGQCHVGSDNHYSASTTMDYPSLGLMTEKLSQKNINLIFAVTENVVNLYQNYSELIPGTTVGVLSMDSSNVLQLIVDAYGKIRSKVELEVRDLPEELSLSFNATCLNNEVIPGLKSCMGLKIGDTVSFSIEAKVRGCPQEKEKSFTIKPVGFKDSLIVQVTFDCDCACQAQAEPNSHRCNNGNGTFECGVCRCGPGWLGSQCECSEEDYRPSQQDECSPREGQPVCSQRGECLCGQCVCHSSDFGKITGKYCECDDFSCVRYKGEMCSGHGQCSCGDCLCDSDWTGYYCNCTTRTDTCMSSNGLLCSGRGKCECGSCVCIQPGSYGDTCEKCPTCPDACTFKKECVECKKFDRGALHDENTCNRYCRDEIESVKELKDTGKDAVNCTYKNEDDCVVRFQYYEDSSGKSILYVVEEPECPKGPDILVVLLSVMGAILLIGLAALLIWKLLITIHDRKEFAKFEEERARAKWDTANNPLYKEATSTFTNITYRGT

CO[C@H]1C[C@@H]2CC[C@@H](C)[C@@](O)(O2)C(=O)C(=O)N2CCCC[C@H]2C(=O)O[C@H]([C@H](C)C[C@@H]2CC[C@@H](O)[C@H](OC)C2)CC(=O)[C@H](C)/C=C(\C)[C@@H](O)[C@@H](OC)C(=O)[C@H](C)C[C@H](C)/C=C/C=C/C=C/1C [free rapamycin, rapamycin]
cell toxicity and death (MTS cell viability) (HUVEC): do not result in significant cell toxicity and death | concentration that did induce toxicity (HUVEC; human, 6 h): 3000 ng/mL | cell toxicity and death (MTS cell viability) (MCEC): do not result in significant cell toxicity and death | concentration that did induce toxicity (MCEC; mouse, 6 h): 3000 ng/mL | dose in Belzer UW solution that provided protection (aortic allograft): 1000 ng/mL

Targeted Rapamycin Micelles (TRaM): rapamycin micelles bearing the cyclic peptide arginine-glycine-aspartate (cRGD) on the surface, labeled with Dylight 680
increase of fluorescence in HUVEC over a 6 hours period, without brefeldin A (-BA) [1]: 88% | micelle internalization into HUVEC (confocal microscopy, Dylight 680 fluorescence) compared to untargeted RaM [1]: > 50%

Source: patent US11260027B2, “Donor organ pre-treatment formulation” (MUSC FOUNDATION FOR RESEARCH DEVELOPMENT, priority 2015, dated 2022)
